US7332615B2, “Hydrophilic analogs of 4,8-dihydrobenzodithiophene-4,8-diones as anticancer agents” (Industrial Technology Research Institute, priority 2004, dated 2008)
pIC50: −log10 of the molar value. Where a name gives a salt, the structure may show the parent alone. Read-outs that look alike come from different tables or passages of the source.

What was measured:
[1] = Cytotoxicity Assays Method A (alamarBlue anti-proliferative assay), HUVEC; assay type: cell-based; settings: human, HUVEC (human umbilical vein endothelial cells), 72-hour incubation, alamarBlue
Text: (§1) Cytotoxicity Assays Method A (HUVEC, MCF-7, HT-29, Hep 3B and NCl-H460) [S. A. Ahmed, R. M. Gogal Jr., and J. E. Walsh, Journal of Immunological Methods 170: 211-224, (1994): M. R. Boyd, Status of the NCl preclinical antitumor drug discovery screen. (Published by J. B. Lippincoft Company, Philadelphia, Pa. 19105, USA) Principles & Practices of Oncology Updates 3 # 10: 1-12, (1989); M. R. Boyd, et al. Data display and analysis strategies for the NCl disease-oriented in vitro antitumor drug screen. In: Cytotoxic anti-cancer drugs: models and concepts for drug discovery and development. Boston: Kluwer Academic, Pages; 11-34, (1992)]
(§2) The test compounds were dissolved in 100% DMSO and then diluted with sterile distilled water to obtain initial working solutions of 20000, 2000, 200, 20 and 2 μM in 80% DMSO. A 200 fold dilution was further made in culture media to generate final assay concentrations of 100, 10, 1, 0.1 and 0.01 μM in 0.4% DMSO.
(§3) Aliquots of 100 μl of cell suspension (about 1.5-3.0×10^3/well) were placed in 96-well microtiter plates in an atmosphere of 5% CO2 at 37° C. After 24 hours, 100 μl of growth medium and 1 μl of test solution or vehicle (80% DMSO) were added respectively per well in duplicate for an additional 72-hour incubation. Thus, the final concentration of DMSO was 0.4%. The test compounds, IIa-1, IIb-1 and VII-1 were evaluated at concentrations of 100, 10, 1, 0.1 and 0.01 μM. At the end of incubation, 20 μl of alamarBlue 90% reagent was added to each well for another 6-hour incubation before detection of cell viability by fluorescent intensity. Fluorescent intensity was measured using a Spectraflour Plus plate reader with excitation at 530 nm and emission at 590 nm.
(§4) The measured results was calculated by the following formula: PG(%)=100×(Mean Ftest−Mean Ftime0)/(Mean Fctrl−Mean Ftime0)] If(Mean Ftest−Mean Ftime0)<0, then PG(%)=100×(Mean Ftest−Mean Ftime0)/(Mean Ftime0−Mean Fblank) wherein PG represents percent growth;
(§5) A decrease of 50% or more (≧50%) in fluorescent intensity relative to the vehicle-treated control indicates significant cytostatic or cytotoxic activity, and semi-quantitative values for IC50, TGI and LC50 were then determined by nonlinear regression using GraphPad Prism (GraphPad Software, USA).
(§6) IC50 (50% Inhibition Concentration); Test compound concentration where the increase from times in the number or mass of treated cells was only 50% as much as the corresponding increase in the vehicle-control at the end of experiment.
(§7) TGI (Total Growth Inhibition): Test compound concentration where the number or mass of treated cells at the end of experiment was equal to that at time0.
(§8) LC50 (50% Lethal Concentration): Test compound concentration where the number or mass of treated cells at the end of experiment was half that at time.
(§9) The assays were used to detect changes in cell proliferation based on the ability of viable cells to cause alamarBlue to change from its oxidized to a reduced form. With the results obtained from the alamarBlue reaction, cell proliferation can be quantified and metabolic activity of viable cell can be examined.
(§10) The succinate derivatives of compounds IIa-1, IIb-1 and VII-1 were tested for possible effect on the proliferation of four human tumor cell lines ˜MCF-7 (breast), HT-29 (colon), Hep3B (liver), and NCl—H 460 (lung) as well as one human umbilical vein endothelial cell (HUVEC) at assay concentration from 0.01 to 100 μM, through serial 10-fold dilution.

[2] = system: HUVEC; assay: as above; assay type: cell-based; settings: for TGI (Total growth Inhibition): 72-hour incubation, alamarBlue; for pIC50: Homo sapiens, 72 h, read-out: IC50 (50% Inhibition Concentration)
Text: as §1, §2, §3, §4, §5, §6, §7, §8, §9, §10

[3] = system: MCF-7; assay: Cytotoxicity Assays Method A (alamarBlue anti-proliferative assay), MCF-7; assay type: cell-based; settings: for pIC50 / CC50: Homo sapiens; for pIC50: MCF7, 72 h, read-out: IC50 (50% Inhibition Concentration); for CC50: MCF7, read-out: LC50 (50% Lethal Concentration); for CC50 / TGI (Total growth Inhibition): MCF-7, 72-hour incubation, alamarBlue; for cytotoxicity against MCF-7 (in words): MCF-7, summary of Table 1
Text: as §1, §2, §3, §4, §5, §6, §7, §8, §9, §10

[4] = system: HT-29; assay: Cytotoxicity Assays Method A (alamarBlue anti-proliferative assay), HT-29; assay type: cell-based; settings: for TGI (Total growth Inhibition) / LC50 (50% lethal concentration): HT-29, 72-hour incubation, alamarBlue; for pIC50 / LC50 (50% lethal concentration): Homo sapiens; for pIC50: HT-29, 72 h, read-out: IC50 (50% Inhibition Concentration)
Text: as §1, §2, §3, §4, §5, §6, §7, §8, §9, §10

[5] = system: Hep 3B; assay: Cytotoxicity Assays Method A (alamarBlue anti-proliferative assay), Hep 3B; assay type: cell-based; settings: for cytotoxicity against Hep3B (in words): summary of Table 1; for TGI (Total growth Inhibition) / CC50: Hep-3B, 72-hour incubation, alamarBlue; for pIC50 / CC50: Homo sapiens; for cytotoxicity against Hep3B (in words) / pIC50 / CC50: Hep3B; for pIC50: 72 h, read-out: IC50 (50% Inhibition Concentration); for CC50: read-out: LC50 (50% Lethal Concentration)
Text: as §1, §2, §3, §4, §5, §6, §7, §8, §9, §10

[6] = system: NCI-H460; assay: Cytotoxicity Assays Method A (alamarBlue anti-proliferative assay), NCI-H460; assay type: cell-based; settings: for pIC50 / CC50: Homo sapiens; for pIC50: NCI-H460, 72 h, read-out: IC50 (50% Inhibition Concentration); for CC50 / TGI (Total growth Inhibition): NCI-H460, 72-hour incubation, alamarBlue; for CC50: read-out: LC50 (50% Lethal Concentration)
Text: as §1, §2, §3, §4, §5, §6, §7, §8, §9, §10

[7] = system: Human promyeloid leukemia HL-60 cells; assay: Cytotoxicity Assays Method B (MTT proliferation assay), HL-60; assay type: cell-based; settings: for pIC50: Homo sapiens, read-out: IC50 (concentration at which 50% of the cells are inhibited from growing)
Description: Cytotoxicity Assays Method B (HL-60) [H. M. Chen et al. Chin. Pharm. J. 53, 157-167 (2001)]
Human promyeloid leukemia HL-60 cells were obtained from the American Type
Culture Collection (Manassas, Va., USA) and the Culture Collection and Research Center(CCRC) (Tai wan, ROC). Human promyeloid leukemia HL-60 cells were cultured in suspension in RPMI-1640 medium (GIBCO, Grand Is land, USA), containing 10% fetal bovine se rum (GIBCO, Grand Is land, USA), 100 unit/mL penicillin, […] streptomycin and 1% L-glutamine at 37° C. in a humidified atmosphere of 5% CO2 in air. Cells were split every day to maintain the cell numbers between 2−5×10^5/mL. Cell numbers were assessed by the standard procedure of leukocyte counting using a hemocytometer and cell viability was checked by the ability of cells to exclude Trypan blue.
Cellular proliferation was determined by the MTT [3-(4,5-dimethylthiazol-2-yl)-2,5-diphenyltetrazolium bromide] as say. Briefly, […] of MTT (5 mg/mL) was added to each well of 96-well plates containing 1×10^5 cells after treatment with different concentrations of samples for 4 days. The reaction was stopped after 2 h by adding […] of 0.04 N HCl in isopropanol and the OD570 nm was determined by a minicolorimetric reader. Each concentration treatment was performed in triplicate.

[8] = system: epidermoid carcinoma of the nasopharynx (KB); assay: Cytotoxicity Assays Method C, KB; assay type: cell-based; settings: read-out: IC50 KB
[9] = system: p-gp-expressing epidermoid carcinoma of the nasopharynx (KB-VIN); assay: Cytotoxicity Assays Method C, KB-VIN; assay type: cell-based; settings: for pIC50: 50% reduction in cell number after 72 hr of incubation; for activity against the MDR cell line KB-VIN (in words): summary of Table 3
Text: Cytotoxicity Assays Method C (KB, KB-VIN, AS49, HCT-8, PC-3) [K. H. Lee et. al. Planta Med. 54, 308-312 (1998), Monk A et. al. J. Natl. Cancer Inst. 83, 757-766 (1991).] The cell lines included epidermoid caninoma of the nasopharynx (KB), p-gp-expressing epidermoid caninoma of the nasopharynx (KB-VIN), lung carcinoma (A-549), ileocecal carinoma (HCT-8) and prostate cancer (PC-3) cell lines.

[10] = system: lung carcinoma (A-549); assay: Cytotoxicity Assays Method C, A-549; assay type: cell-based; settings: read-out: IC50 A549
[11] = system: ileocecal carcinoma (HCT-8); assay: Cytotoxicity Assays Method C, HCT-8; assay type: cell-based; settings: Homo sapiens, HCT-8, 72 h, read-out: IC50 HCT-8
[12] = system: prostate cancer (PC-3); assay: Cytotoxicity Assays Method C, PC-3; assay type: cell-based; settings: for pIC50: read-out: IC50 PC-3; for activity against the androgen-insensitive prostate cancer cell line PC-3 (in words): PC-3, summary of Table 3
[13] = Water solubility; assay type: physicochemical; settings: water; in H2O
[14] = 96 h, HL-60, MTT, treatment for 4 days
[15] = HCT-8, 50% reduction in cell number after 72 hr of incubation

Structure (SMILES) | LC50 (50% lethal concentration) at 72 h [1] [nM] | TGI (Total growth Inhibition) [2] [nM] | pIC50 [2] | pIC50 [3] | CC50 [3] [nM] | TGI (Total growth Inhibition) [3] [nM] | cytotoxicity against MCF-7 (in words) [3] | TGI (Total growth Inhibition) [4] [nM] | pIC50 [4] | LC50 (50% lethal concentration) [4] [nM] | cytotoxicity against Hep3B (in words) [5] | TGI (Total growth Inhibition) [5] [nM] | pIC50 [5] | CC50 [5] [nM] | pIC50 ([8]; 72 h) | pIC50 ([9]; Homo sapiens, KBVIN, 72 h) | pIC50 ([10]; Homo sapiens, A549, 72 h) | pIC50 [11] | pIC50 ([12]; 72 h) | pIC50 [7, 14] | other results
O=C(O)CCC(=O)OCc1cc2c(s1)C(=O)c1sccc1C2=O [IIa-1, Mono-[1-(4,8-dioxo-4,8-dihydrobenzo[1,2-b:5,4-b′]dithiophen-2-yl)-methyl]succinate] | 34000 | 19000 | 5.00 | 5.47 | 14000 | 6900 | significant activity | 22000 | 4.96 | 45000 | significant activity | 5100 | 5.55 | 9200 | 5.69 | 5.35 | 5.39 | 5.39 | 5.87 | – | pIC50 [6]: 6.09; CC50 [6]: 3500 nM; TGI (Total growth Inhibition) [6]: 1700 nM; pIC50 ([7]; HL-60, 96 h): 6.33
CC(OC(=O)CCC(=O)O)c1cc2c(s1)C(=O)c1sccc1C2=O (stereo not shown) [IIb-1, Mono-[1-(4,8-dioxo-4,8-dihydrobenzo[1,2-b:5,4-b′]dithiophen-2-yl)-ethyl]succinate] | 89000 | 31000 | 4.96 | 6.09 | 27000 | 4700 | significant activity | 2000 | 5.37 | 89000 | significant activity | 1800 | 5.96 | 2900 | 6.33 | 6.60 | 6.24 | 6.04 | 6.66 | – | pIC50 [6]: 6.19; CC50 [6]: 2100 nM; TGI (Total growth Inhibition) [6]: 1200 nM; pIC50 ([7]; HL-60, 96 h): 6.59; activity against the MDR cell line KB-VIN (in words) [9]: potent activity; activity against the androgen-insensitive prostate cancer cell line PC-3 (in words) [12]: potent activity
CC(OCC(=O)O)c1cc2c(s1)C(=O)c1ccsc1C2=O (stereo not shown) [IX, 1-(4,8-Dioxo-4,8-dihydroxybenzo[1,2-b:4,5-b′]-dithiophen-2-yl-ethoxy)-acetic acid] | – | – | – | – | – | – | – | – | – | – | – | – | – | – | – | – | – | – | – | 5.59 | pIC50 ([8]; KB, 50% reduction in cell number after 72 hr of incubation): 4.70; pIC50 [9]: 4.74; pIC50 ([10]; A549, 50% reduction in cell number after 72 hr of incubation): 5.59; pIC50 [11, 15]: 6.62; pIC50 ([12]; PC-3, 50% reduction in cell number after 72 hr of incubation): 5.60
CC(OC(=O)CCCC(=O)O)c1cc2c(s1)C(=O)c1ccsc1C2=O (stereo not shown) [VII-2, Mono-[1-(4,8-dioxo-4,8-dihydroxybenzo[1,2-b;4,5-b′]dithiophen-2-yl)-ethyl]pentanedioate] | – | – | – | – | – | – | – | – | – | – | – | – | – | – | 7.10 | – | 6.29 | 6.32 | 7.22 | 6.55 | pIC50 [9]: 6.62; activity against the MDR cell line KB-VIN (in words) [9]: potent activity; activity against the androgen-insensitive prostate cancer cell line PC-3 (in words) [12]: potent activity
CN(C)CCNC(=O)c1cc2c(s1)C(=O)c1ccsc1C2=O [XV-2-H3PO4, 4,8-dioxo-4,8-dihydrobenzo[1,2-b;4,5-b′]dithiophene-2-carboxylate-(2-dimethyl-aminoethyl)-amide phosphoric acid salt] | – | – | – | – | – | – | – | – | – | – | – | – | – | – | – | 8.00 | – | – | – | 7.30 | cytotoxicity against HL-60 (in words) ([7]; HL-60, summary of Table 2): the most potent one; pIC50 ([8]; 72 h, KB, 50% reduction in cell number after 72 hr of incubation): 7.22; pIC50 ([10]; Homo sapiens, A549, 72 h, A549, 50% reduction in cell number after 72 hr of incubation): 8.00; pIC50 [11, 15]: 8.00; pIC50 ([12]; 72 h, PC-3, 50% reduction in cell number after 72 hr of incubation): 8.00; solubility [13]: ≥ 4000 µg/mL
